According to US20090239846A1, “Novel Compounds” (Glaxo Group Limited, priority 2005, published 2009):

What was measured:
[1] = system: IL-8 production by human neutrophils; test: TNF-stimulated IL-8 production from human neutrophils; type: cell-based; conditions: Neutrophil, bound, not more than 50% inhibition at 100 nM, read-out: IC50
[2] = system: influx of neutrophils to the lung in LPS-challenged rats; test: Rat LPS neutrophilia model; type: in vivo; conditions: LPS aerosol, lavage 4 hours later, in at least one of the range of conditions tested, significance p<0.05
Method in brief: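 Rats pretreated 15 min–24 h with compound or vehicle, given intratracheally (200 ul, isoflurane anaesthesia) as suspension in various vehicles, then exposed to LPS aerosol (100 ug/ml) 15 min. BAL 4 h later; Diffquick-stained differential counts give % inhibition of neutrophils versus no-compound controls at a set concentration and pretreatment time.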

Recombinant human p38α = molecular target: T1, Recombinant human p38α (Homo sapiens, UniProt Q16539); test: Fluorescence anisotropy kinase binding assay (standard or low volume); conditions: 12 nM p38α, 5 nM fluorescent ligand
T1 construct: GST; made in house
T1 sequence (Q16539 whole entry): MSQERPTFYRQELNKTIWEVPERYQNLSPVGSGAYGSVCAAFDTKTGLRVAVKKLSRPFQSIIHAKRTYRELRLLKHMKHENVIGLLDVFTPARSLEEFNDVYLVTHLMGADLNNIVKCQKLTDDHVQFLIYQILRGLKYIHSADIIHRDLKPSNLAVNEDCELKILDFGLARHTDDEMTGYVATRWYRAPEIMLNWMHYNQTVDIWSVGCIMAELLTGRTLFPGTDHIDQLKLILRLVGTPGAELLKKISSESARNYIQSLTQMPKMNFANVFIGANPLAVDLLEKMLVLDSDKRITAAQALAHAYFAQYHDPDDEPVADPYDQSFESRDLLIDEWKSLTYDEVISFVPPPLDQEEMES
Method in brief: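 Activated GST-tagged recombinant human p38α (pre-activated with MBP-MKK6 DD) at 12 nM final with 5 nM rhodamine green-labelled pyridinylimidazole tracer in pH 7.5 HEPES/CHAPS/DTT/MgCl2 buffer. Test compound 0.28 nM–16.6 μM or 0.02 nM–25 μM final, 3% or 1.7% DMSO; 30–60 min at room temperature. Fluorescence anisotropy read (ex 485/em 535 nm) for Ki.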

Row | IC50 [1] | active in the assay (pIC50, p38α binding) (Recombinant human p38α) | Compound | melting point | inhibition of neutrophilia [2]
1 | > 100 nM | – | CCN(CC)C(=O)c1ccc(C)c(-c2nc(NC3CCN(C)CC3)nc3c2CNC(=O)N3c2c(F)cccc2F)c1 [Example 159, 3-{8-(2,6-difluorophenyl)-2-[(1-methyl-4-piperidinyl)amino]-7-oxo-5,6,7,8-tetrahydropyrimido[4,5-dl-pyrimidin-4-yl}-N,N-diethyl-4-methylbenzamide] | 165 to 169 °C | –
2 | – | – | CNC(=O)c1ccc(C)c(-c2nc(N3CCC(N4CCCCC4)CC3)nc3c2CNC(=O)N3c2c(F)cccc2F)c1 [Example 176, 3-[2-(1,4′-bipiperidin-1′-yl)-8-(2,6-difluorophenyl)-7-oxo-5,6,7,8-tetrahydropyrimido[4,5-d]pyrimidin-4-yl]-N,4-dimethylbenzamide] | 179 to 184 °C (dec.) | statistically nonsignificant inhibition of neutrophilia
3 | – | – | CNC(=O)c1ccc(C)c(-c2nc(N(C)CCCN(C)C)nc3c2CNC(=O)N3c2c(F)cccc2F)c1 [Example 174, 3-{8-(2,6-difluorophenyl)-2-[[3-(dimethylamino)propyl](methyl)amino]-7-oxo-5,6,7,8-tetrahydropyrimido[4,5-d]pyrimidin-4-yl}-dimethylbenzamide] | 163 to 165 °C | inactive
4 | > 100 nM | active | CCN(CC)C(=O)c1ccc(C)c(-c2nc(NCCN(C)C)nc3c2CNC(=O)N3c2c(F)cccc2F)c1 [156(c), 3-(8-(2,6-difluorophenyl)-2-{[2-(dimethylamino)ethyl]amino}-7-oxo-5,6,7,8-tetrahydropyrimido[4,5-d]pyrimidin-4-yl)-N,N-diethyl-4-methylbenzamide] | 125 to 127 °C | –
5 | – | active | CNCCNc1nc(-c2cc(C(=O)NCc3ccccc3)ccc2C)c2c(n1)N(c1c(F)cccc1F)C(=O)NC2 [19(b), 3-(8-(2,6-Difluorophenyl)-2-{[2-(methylamino)ethyl]amino}-7-oxo-5,6,7,8-tetrahydropyrimido[4,5-d]pyrimidin-4-yl)-4-methyl-N-(phenylmethyl)benzamide] | 157 to 161 °C | –
6 | – | active | Cc1ccc(C(=O)NCc2ccccc2)cc1-c1nc(NC2CCNCC2)nc2c1CNC(=O)N2c1c(F)cccc1F [21(b), 3-[8-(2,6-Difluorophenyl)-7-oxo-2-(4-piperidinylamino)-5,6,7,8-tetrahydropyrimido[4,5-d]pyrimidin-4-yl]-4-methyl-N-(phenylmethyl)benzamide] | 172 to 176 °C (dec.) | –
7 | – | – | CNC(=O)c1ccc(C)c(-c2nc(N3CCC(N4CCCC4)CC3)nc3c2CNC(=O)N3c2c(F)cccc2F)c1 [Example 175, 3-{8-(2,6-difluorophenyl)-7-oxo-2-[4-(1-pyrrolidinyl)-1-piperidinyl]-5,6,7,8-tetrahydropyrimido[4,5-d]pyrimidin-4-yl}-N,4-dimethylbenzamide] | 189 to 194 °C (dec.) | inactive
8 | – | active | Cc1ccc(C(=O)NCc2ccccc2)cc1-c1nc(NCCNC(C)C)nc2c1CNC(=O)N2c1c(F)cccc1F [Example 20, 3-[8-(2,6-Difluorophenyl)-2-({2-[(1-methylethyl)amino]ethyl}amino)-7-oxo-5,6,7,8-tetrahydropyrimido[4,5-d]pyrimidin-4-yl]-4-methyl-N-(phenylmethyl)benzamide] | 133 to 137 °C | –
9 | – | – | Cc1ccc(C(=O)NCc2ccccc2)cc1-c1nc(N2CCN(C)CC2)nc2c1CNC(=O)N2c1c(F)cccc1F [Example 148] | 164 to 168 °C | statistically nonsignificant inhibition of neutrophilia
10 | – | – | Cc1ccc(C(=O)NCc2ccccc2)cc1-c1nc(NCCCN(C)C)nc2c1CNC(=O)N2c1c(F)cccc1F [Example 151] | 141 to 144 °C | statistically nonsignificant inhibition of neutrophilia
11 | > 100 nM | – | Cc1ccc(C(=O)N(C)C)cc1-c1nc(NCCN(C)C)nc2c1CNC(=O)N2c1c(F)cccc1F [Example 152] | 138 to 142 °C | –
12 | – | – | Cc1ccc(NC(=O)c2ccsc2)cc1-c1nc(N2CCC(N)CC2)nc2c1CNC(=O)N2c1c(F)cccc1F [Example 11, N-{3-[2-(4-amino-1-piperidinyl)-8-(2,6-difluorophenyl)-7-oxo-5,6,7,8-tetrahydropyrimido[4,5-d]pyrimidin-4-yl]-4-methylphenyl}-3-thiophenecarboxamide] | 250 to 261 °C (dec.) | statistically significant inhibition of neutrophilia
13 | – | active | COc1nc(-c2cc(NC(=O)c3ccsc3)ccc2C)c2c(n1)N(c1c(F)cccc1F)C(=O)NC2 [10(e), N-{3-[8-(2,6-difluorophenyl)-2-(methyloxy)-7-oxo-5,6,7,8-tetrahydropyrimido-[4,5-d]pyrimidin-4-yl]-4-methylphenyl}-3-thiophenecarboxamide] | 225 to 228 °C (dec.) | –
14 | – | – | Cc1ccc(C(=O)NCc2ccccc2)cc1-c1nc(N(C)CCCN(C)C)nc2c1CNC(=O)N2c1c(F)cccc1F [Example 17, 3-{8-(2,6-Difluorophenyl)-2-[[3-(dimethylamino)propyl](methyl)amino]-7-oxo-5,6,7,8-tetrahydropyrimido[4,5-d]pyrimidin-4-yl}-4-methyl-N-(phenylmethyl)benzamide] | 124 to 127 °C | statistically nonsignificant inhibition of neutrophilia
15 | – | – | CNC(=O)c1ccc(C)c(-c2nc(NCCCN(C)C)nc3c2CNC(=O)N3c2c(F)cccc2F)c1 [Example 166, 3-(8-(2,6-difluorophenyl)-2-{[3-(dimethylamino)propyl]amino}-7-oxo-5,6,7,8-tetrahydropyrimido[4,5-d]pyrimidin-4-yl)-N,4-dimethylbenzamide] | 164 to 167 °C (dec.) | statistically nonsignificant inhibition of neutrophilia
16 | – | – | Cc1ccc(C(=O)Nc2ccc(C)c(-c3nc(N4CCC(N)CC4)nc4c3CNC(=O)N4c3c(F)cccc3F)c2)cc1F [Example 24, N-{3-[2-(4-amino-1-piperidinyl)-8-(2,6-difluorophenyl)-7-oxo-5,6,7,8-tetrahydropyrimido[4,5-d]pyrimidin-4-yl]-4-methylphenyl}-3-fluoro-4-methylbenzamide] | 240 °C | statistically nonsignificant inhibition of neutrophilia
17 | – | – | CCN(CC)CCCNc1nc(-c2cc(C(=O)NC)ccc2C)c2c(n1)N(c1c(F)cccc1F)C(=O)NC2 [Example 172, 3-[2-{[3-(diethylamino)propyl]amino}-8-(2,6-difluorophenyl)-7-oxo-5,6,7,8-tetrahydropyrimido[4,5-d]pyrimidin-4-yl]-N,4-dimethylbenzamide] | 133 to 136 °C | statistically nonsignificant inhibition of neutrophilia
18 | – | active | CNC(=O)c1ccc(C)c(-c2nc(NCCN(C)C)nc3c2CNC(=O)N3c2c(F)cccc2F)c1 [Example 163(c), 3-(8-(2,6-difluorophenyl)-2-{[2-(dimethylamino)ethyl]amino}-7-oxo-5,6,7,8-tetrahydropyrimido[4,5-d]-pyrimidin-4-yl)-N,4-dimethylbenzamide] | 155 to 158 °C (dec.) | –
19 | – | active | Cc1ccc(C(=O)NCc2ccccc2)cc1-c1nc(NC2CCN(C)CC2)nc2c1CNC(=O)N2c1c(F)cccc1F [Example 22, 3-[8-(2,6-Difluorophenyl)-2-[(1-methyl-4-piperidinyl)amino]-7-oxo-5,6,7,8-tetrahydropyrimido[4′-d]pyrimidin-4-yl]-4-methyl-N-(phenylmethyl)benzamide] | 152 to 154 °C (dec.) | –
20 | – | – | Cc1ccc(C(=O)Nc2ccc(C)c(-c3nc(OC(C)C)nc4c3CNC(=O)N4c3c(F)cccc3F)c2)cc1F [Example 26, N-(3-{8-(2,6-difluorophenyl)-2-[(1-methylethyl)oxy]-7-oxo-5,6,7,8-tetrahydropyrimido[4,5-d]pyrimidin-4-yl}-4-methylphenyl)-3-fluoro-4-methylbenzamide] | 253.5 to 255.4 °C | inactive

Row | Compound | IC50 [1] | active in the assay (pIC50, p38α binding) (Recombinant human p38α) | melting point | inhibition of neutrophilia [2]
21 | Cc1ccc(C(=O)Nc2ccc(C)c(-c3nc(NC4CC(C)(C)NC(C)(C)C4)nc4c3CNC(=O)N4c3c(F)cccc3F)c2)cc1F [23(e), N-(3-{8-(2,6-difluorophenyl)-7-oxo-2-[(2,2,6,6-tetramethyl-4-piperidinyl)amino]-5,6,7,8-tetrahydropyrimido[4,5-d]pyrimidin-4-yl}-4-methylphenyl)-3-fluoro-4-methylbenzamide] | – | active | 220 °C (dec.) | statistically nonsignificant inhibition of neutrophilia
22 | Cc1ccc(C(=O)Nc2ccc(C)c(-c3nc(N(C)C)nc4c3CNC(=O)N4c3c(F)cccc3F)c2)cc1F [Example 28, N-{3-[8-(2,6-difluorophenyl)-2-(dimethylamino)-7-oxo-5,6,7,8-tetrahydropyrimido[4,5-d]pyrimidin-4-yl]-4-methylphenyl}-3-fluoro-4-methylbenzamide] | – | active | 257.8 to 264.3 °C | statistically nonsignificant inhibition of neutrophilia
